Laboratory results: the kinase profiling compilation of Christmann-Franck et al. (2016)
One block for each compound: values may come before it.

Key:
Assay in all cases: radiometric filter-binding kinase assay
BTK (human) = BTK (human) (UniProt Q06187)
CDK2 CCNA2 (human) = CDK2 CCNA2 (human) (UniProt P20248+P24941)
CHEK1 (human) = CHEK1 (human) (UniProt O14757)
CSNK2A1 (human) = CSNK2A1 (human) (UniProt P68400)
DYRK2 (human) = DYRK2 (human) (UniProt Q92630)
EEF2K (human) = EEF2K (human) (UniProt O00418)
EPHA2 (human) = EPHA2 (human) (UniProt P29317)
FGFR1 (human) = FGFR1 (human) (UniProt P11362)
FLT1 (human) = FLT1 (human) (UniProt P17948)
INSRR (human) = INSRR (human) (UniProt P14616)
MAPK12 (human) = MAPK12 (human) (UniProt P53778)
MAPK15 (human) = MAPK15 (human) (UniProt Q8TD08)
MAPKAPK5 (human) = MAPKAPK5 (human) (UniProt Q8IW41)
MELK (human) = MELK (human) (UniProt Q14680)
MST4 (human) = MST4 (human) (UniProt Q9P289)
PHKG1 (human) = PHKG1 (human) (UniProt Q16816)
PIM2 (human) = PIM2 (human) (UniProt Q9P1W9)
PIM3 (human) = PIM3 (human) (UniProt Q86V86)
PRKACA (human) = PRKACA (human) (UniProt P17612)
PRKCA (human) = PRKCA (human) (UniProt P17252)
RPS6KA3 KD1 KD2 (human) = RPS6KA3 KD1 KD2 (human) (UniProt P51812)
[1] = test system: SGK1 (human), O00141 [S422D]
SRPK1 (human) = SRPK1 (human) (UniProt Q96SB4)

Chain of FLT1 (human) (P17948 whole entry, looked up): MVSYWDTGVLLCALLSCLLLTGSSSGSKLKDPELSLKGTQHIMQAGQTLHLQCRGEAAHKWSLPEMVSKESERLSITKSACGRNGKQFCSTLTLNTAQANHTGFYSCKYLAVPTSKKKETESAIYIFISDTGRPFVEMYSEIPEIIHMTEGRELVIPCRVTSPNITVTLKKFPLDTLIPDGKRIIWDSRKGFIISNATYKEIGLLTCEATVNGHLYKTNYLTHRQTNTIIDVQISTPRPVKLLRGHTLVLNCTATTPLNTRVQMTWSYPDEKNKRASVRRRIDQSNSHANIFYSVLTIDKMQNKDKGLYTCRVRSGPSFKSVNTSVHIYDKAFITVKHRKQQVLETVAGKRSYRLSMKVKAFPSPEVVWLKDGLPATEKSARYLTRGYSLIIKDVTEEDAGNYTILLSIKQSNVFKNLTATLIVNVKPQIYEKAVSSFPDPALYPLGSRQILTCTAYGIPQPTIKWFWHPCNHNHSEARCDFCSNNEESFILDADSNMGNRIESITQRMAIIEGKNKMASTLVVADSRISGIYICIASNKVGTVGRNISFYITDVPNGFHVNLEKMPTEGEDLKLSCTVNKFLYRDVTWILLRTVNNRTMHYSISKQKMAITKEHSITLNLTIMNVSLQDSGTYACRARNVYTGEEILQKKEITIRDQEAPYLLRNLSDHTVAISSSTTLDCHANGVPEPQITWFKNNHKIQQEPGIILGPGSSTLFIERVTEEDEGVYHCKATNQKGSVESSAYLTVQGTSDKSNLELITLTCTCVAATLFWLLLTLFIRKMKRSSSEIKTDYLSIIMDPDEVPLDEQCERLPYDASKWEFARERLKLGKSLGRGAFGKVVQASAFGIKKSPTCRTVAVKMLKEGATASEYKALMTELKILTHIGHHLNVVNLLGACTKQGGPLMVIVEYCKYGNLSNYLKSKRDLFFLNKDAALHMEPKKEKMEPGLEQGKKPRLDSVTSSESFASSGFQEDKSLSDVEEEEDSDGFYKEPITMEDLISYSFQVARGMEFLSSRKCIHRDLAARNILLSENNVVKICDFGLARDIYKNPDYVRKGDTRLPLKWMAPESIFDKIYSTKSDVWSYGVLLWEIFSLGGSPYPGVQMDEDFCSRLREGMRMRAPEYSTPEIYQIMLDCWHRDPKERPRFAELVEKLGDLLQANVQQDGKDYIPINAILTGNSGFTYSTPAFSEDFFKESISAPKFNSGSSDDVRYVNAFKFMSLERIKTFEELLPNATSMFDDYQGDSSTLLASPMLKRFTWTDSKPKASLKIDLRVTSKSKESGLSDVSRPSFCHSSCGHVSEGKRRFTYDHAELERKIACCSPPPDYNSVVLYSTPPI
Chain of MAPK12 (human) (P53778 whole entry, looked up): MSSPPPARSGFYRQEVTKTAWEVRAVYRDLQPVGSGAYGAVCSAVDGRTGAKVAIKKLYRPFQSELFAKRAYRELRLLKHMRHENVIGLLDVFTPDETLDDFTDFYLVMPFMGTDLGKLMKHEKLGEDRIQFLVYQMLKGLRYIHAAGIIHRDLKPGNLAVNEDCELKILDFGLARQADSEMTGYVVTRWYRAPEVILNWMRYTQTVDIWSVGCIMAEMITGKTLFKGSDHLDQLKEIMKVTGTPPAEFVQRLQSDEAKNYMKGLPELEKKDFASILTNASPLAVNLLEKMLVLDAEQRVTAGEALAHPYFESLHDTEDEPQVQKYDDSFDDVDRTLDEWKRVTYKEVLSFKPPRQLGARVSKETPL
Chain of MAPKAPK5 (human) (Q8IW41 whole entry, looked up): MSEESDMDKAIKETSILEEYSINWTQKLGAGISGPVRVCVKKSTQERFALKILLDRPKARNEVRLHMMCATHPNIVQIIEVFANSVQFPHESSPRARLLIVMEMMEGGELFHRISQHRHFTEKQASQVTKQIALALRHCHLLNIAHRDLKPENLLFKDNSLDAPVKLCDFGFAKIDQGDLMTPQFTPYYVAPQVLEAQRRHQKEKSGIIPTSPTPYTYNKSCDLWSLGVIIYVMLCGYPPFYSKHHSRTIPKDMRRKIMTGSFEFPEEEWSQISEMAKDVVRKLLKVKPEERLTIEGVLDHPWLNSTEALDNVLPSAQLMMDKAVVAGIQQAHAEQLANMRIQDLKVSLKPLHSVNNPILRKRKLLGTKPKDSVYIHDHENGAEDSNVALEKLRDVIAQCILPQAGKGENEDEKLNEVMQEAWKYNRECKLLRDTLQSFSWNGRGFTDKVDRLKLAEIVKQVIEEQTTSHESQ
Chain of RPS6KA3 KD1 KD2 (human) (P51812 whole entry, looked up): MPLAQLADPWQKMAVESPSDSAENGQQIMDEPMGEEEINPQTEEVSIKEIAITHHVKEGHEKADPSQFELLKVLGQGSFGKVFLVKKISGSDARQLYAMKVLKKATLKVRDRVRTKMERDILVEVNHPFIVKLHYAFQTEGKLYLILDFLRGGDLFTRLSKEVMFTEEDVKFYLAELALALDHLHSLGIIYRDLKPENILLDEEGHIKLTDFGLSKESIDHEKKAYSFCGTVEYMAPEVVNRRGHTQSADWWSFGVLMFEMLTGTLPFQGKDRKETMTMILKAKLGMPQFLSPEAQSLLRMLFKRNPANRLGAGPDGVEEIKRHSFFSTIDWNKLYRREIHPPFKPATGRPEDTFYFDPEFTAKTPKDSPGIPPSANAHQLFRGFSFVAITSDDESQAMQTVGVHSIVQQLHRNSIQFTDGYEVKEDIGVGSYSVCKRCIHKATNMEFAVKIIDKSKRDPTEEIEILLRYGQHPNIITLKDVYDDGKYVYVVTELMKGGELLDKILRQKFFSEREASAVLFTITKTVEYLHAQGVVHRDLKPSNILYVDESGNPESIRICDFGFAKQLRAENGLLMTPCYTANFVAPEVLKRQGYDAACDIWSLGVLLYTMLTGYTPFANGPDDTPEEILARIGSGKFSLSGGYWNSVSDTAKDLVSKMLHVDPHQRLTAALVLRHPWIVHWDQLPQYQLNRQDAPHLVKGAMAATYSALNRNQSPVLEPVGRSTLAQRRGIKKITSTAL
Chain of CSNK2A1 (human) (P68400 whole entry, looked up): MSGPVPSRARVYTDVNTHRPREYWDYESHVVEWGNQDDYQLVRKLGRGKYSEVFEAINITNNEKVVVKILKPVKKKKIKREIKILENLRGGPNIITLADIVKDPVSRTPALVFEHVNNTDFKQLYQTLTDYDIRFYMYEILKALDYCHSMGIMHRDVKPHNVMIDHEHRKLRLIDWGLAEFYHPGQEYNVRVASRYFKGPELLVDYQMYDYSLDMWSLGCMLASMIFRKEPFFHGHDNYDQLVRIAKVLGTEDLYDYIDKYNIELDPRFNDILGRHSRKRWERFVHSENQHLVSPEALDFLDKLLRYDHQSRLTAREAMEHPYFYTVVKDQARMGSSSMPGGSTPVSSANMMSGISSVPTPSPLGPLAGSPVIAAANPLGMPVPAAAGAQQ
Chain of PIM2 (human) (Q9P1W9 whole entry, looked up): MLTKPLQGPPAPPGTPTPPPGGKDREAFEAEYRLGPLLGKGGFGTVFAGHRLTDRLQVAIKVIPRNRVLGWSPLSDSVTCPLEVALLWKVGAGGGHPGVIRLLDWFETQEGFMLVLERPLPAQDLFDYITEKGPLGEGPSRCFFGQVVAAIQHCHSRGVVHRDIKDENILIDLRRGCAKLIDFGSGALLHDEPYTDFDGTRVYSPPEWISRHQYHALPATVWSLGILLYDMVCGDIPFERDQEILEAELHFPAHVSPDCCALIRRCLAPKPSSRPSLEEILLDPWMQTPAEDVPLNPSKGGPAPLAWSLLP
Chain of DYRK2 (human) (Q92630 whole entry, looked up): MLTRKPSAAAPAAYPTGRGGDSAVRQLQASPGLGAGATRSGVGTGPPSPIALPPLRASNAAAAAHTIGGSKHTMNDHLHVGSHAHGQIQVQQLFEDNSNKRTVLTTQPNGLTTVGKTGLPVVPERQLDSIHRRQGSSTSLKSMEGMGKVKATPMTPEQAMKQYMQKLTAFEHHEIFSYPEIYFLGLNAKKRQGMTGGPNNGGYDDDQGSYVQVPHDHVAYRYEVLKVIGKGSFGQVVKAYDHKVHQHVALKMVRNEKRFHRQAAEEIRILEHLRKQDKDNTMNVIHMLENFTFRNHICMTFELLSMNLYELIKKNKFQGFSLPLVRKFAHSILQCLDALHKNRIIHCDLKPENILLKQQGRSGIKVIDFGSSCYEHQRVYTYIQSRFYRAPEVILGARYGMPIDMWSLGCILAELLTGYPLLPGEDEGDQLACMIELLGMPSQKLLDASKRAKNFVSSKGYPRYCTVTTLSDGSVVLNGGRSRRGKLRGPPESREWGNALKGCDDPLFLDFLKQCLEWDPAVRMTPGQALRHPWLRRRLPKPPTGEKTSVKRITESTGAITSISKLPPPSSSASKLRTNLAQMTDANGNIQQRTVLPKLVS

- residual activity (BTK (human); compound 0.001 µM): 95%
- residual activity (BTK (human); compound 0.01 µM): 85%
- residual activity (BTK (human); compound 0.1 µM): 93%
- residual activity (CDK2 CCNA2 (human); compound 0.001 µM): 102%
- residual activity (CDK2 CCNA2 (human); compound 0.01 µM): 87%
- residual activity (CDK2 CCNA2 (human); compound 0.1 µM): 85%
- residual activity (CHEK1 (human); compound 0.001 µM): 89%
- residual activity (CHEK1 (human); compound 0.1 µM): 21%
- residual activity (CSNK2A1 (human); compound 0.001 µM): 92%
- residual activity (CSNK2A1 (human); compound 0.01 µM): 91%
- residual activity (CSNK2A1 (human); compound 0.1 µM): 86%
- residual activity (DYRK2 (human); compound 0.001 µM): 88%
- residual activity (DYRK2 (human); compound 0.01 µM): 59%
- residual activity (DYRK2 (human); compound 0.1 µM): 18%
- residual activity (EEF2K (human); compound 0.01 µM): 101%
- residual activity (EEF2K (human); compound 0.1 µM): 106%
- residual activity (EPHA2 (human); compound 0.001 µM): 97%
- residual activity (EPHA2 (human); compound 0.01 µM): 101%
- residual activity (EPHA2 (human); compound 0.1 µM): 87%
- residual activity (FGFR1 (human); compound 0.001 µM): 96%
- residual activity (FGFR1 (human); compound 0.01 µM): 61%
- residual activity (FGFR1 (human); compound 0.1 µM): 18%
- residual activity (FLT1 (human); compound 0.001 µM): 95%
- residual activity (FLT1 (human); compound 0.01 µM): 50%
- residual activity (FLT1 (human); compound 0.1 µM): 13%
- residual activity (INSRR (human); compound 0.001 µM): 91%
- residual activity (INSRR (human); compound 0.01 µM): 75%
- residual activity (INSRR (human); compound 0.1 µM): 47%
- residual activity (MAPK12 (human); compound 0.001 µM): 89%
- residual activity (MAPK12 (human); compound 0.01 µM): 87%
- residual activity (MAPK12 (human); compound 0.1 µM): 82%
- residual activity (MAPKAPK5 (human); compound 0.001 µM): 100%
- residual activity (MAPKAPK5 (human); compound 0.01 µM): 90%
- residual activity (MAPKAPK5 (human); compound 0.1 µM): 94%
- residual activity (MELK (human); compound 0.001 µM): 86%
- residual activity (MELK (human); compound 0.01 µM): 47%
- residual activity (MELK (human); compound 0.1 µM): 9%
- residual activity (MST4 (human); compound 0.001 µM): 87%
- residual activity (MST4 (human); compound 0.01 µM): 80%
- residual activity (PHKG1 (human); compound 0.001 µM): 97%
- residual activity (PHKG1 (human); compound 0.01 µM): 66%
- residual activity (PHKG1 (human); compound 0.1 µM): 18%
- residual activity (PIM2 (human); compound 0.01 µM): 92%
- residual activity (PIM2 (human); compound 0.1 µM): 65%
- residual activity (PIM3 (human); compound 0.001 µM): 96%
- residual activity (PIM3 (human); compound 0.01 µM): 73%
- residual activity (PIM3 (human); compound 0.1 µM): 25%
- residual activity (PRKACA (human); compound 0.001 µM): 92%
- residual activity (PRKACA (human); compound 0.01 µM): 87%
- residual activity (PRKACA (human); compound 0.1 µM): 81%
- residual activity (PRKCA (human); compound 0.001 µM): 102%
- residual activity (PRKCA (human); compound 0.01 µM): 113%
- residual activity (PRKCA (human); compound 0.1 µM): 107%
- residual activity (RPS6KA3 KD1 KD2 (human); compound 0.001 µM): 82%
- residual activity (RPS6KA3 KD1 KD2 (human); compound 0.01 µM): 65%
- residual activity (RPS6KA3 KD1 KD2 (human); compound 0.1 µM): 19%
- residual activity ([1]; compound 0.001 µM): 98%
- residual activity ([1]; compound 0.01 µM): 86%
- residual activity ([1]; compound 0.1 µM): 58%
- residual activity (SRPK1 (human); compound 0.001 µM): 98%
- residual activity (SRPK1 (human); compound 0.01 µM): 96%
- residual activity (SRPK1 (human); compound 0.1 µM): 93%
Structure (SMILES): C/C(=C1/C(=O)Nc2ccc(NC(N)=O)cc21)c1ccc[nH]1
- residual activity (MAPK15 (human); compound 0.001 µM): 85%
- residual activity (MAPK15 (human); compound 0.01 µM): 49%
- residual activity (MAPK15 (human); compound 0.1 µM): 7%

- residual activity (BTK (human); compound 1.0 µM): 100%
- residual activity (BTK (human); compound 10.0 µM): 83%
- residual activity (CDK2 CCNA2 (human); compound 1.0 µM): 58%
- residual activity (CDK2 CCNA2 (human); compound 10.0 µM): 14%
- residual activity (CHEK1 (human); compound 1.0 µM): 102%
- residual activity (CHEK1 (human); compound 10.0 µM): 88%
- residual activity (CSNK2A1 (human); compound 1.0 µM): 95%
- residual activity (CSNK2A1 (human); compound 10.0 µM): 70%
- residual activity (DYRK2 (human); compound 1.0 µM): 99%
- residual activity (DYRK2 (human); compound 10.0 µM): 77%
- residual activity (EEF2K (human); compound 1.0 µM): 88%
- residual activity (EEF2K (human); compound 10.0 µM): 67%
- residual activity (EPHA2 (human); compound 1.0 µM): 96%
- residual activity (EPHA2 (human); compound 10.0 µM): 84%
- residual activity (FGFR1 (human); compound 1.0 µM): 96%
- residual activity (FGFR1 (human); compound 10.0 µM): 79%
- residual activity (FLT1 (human); compound 1.0 µM): 112%
- residual activity (FLT1 (human); compound 10.0 µM): 116%
- residual activity (INSRR (human); compound 1.0 µM): 78%
- residual activity (INSRR (human); compound 10.0 µM): 45%
- residual activity (MAPK12 (human); compound 1.0 µM): 85%
- residual activity (MAPK12 (human); compound 10.0 µM): 66%
- residual activity (MAPKAPK5 (human); compound 1.0 µM): 74%
- residual activity (MAPKAPK5 (human); compound 10.0 µM): 58%
- residual activity (MELK (human); compound 10.0 µM): 58%
- residual activity (MST4 (human); compound 1.0 µM): 105%
- residual activity (MST4 (human); compound 10.0 µM): 85%
- residual activity (PHKG1 (human); compound 1.0 µM): 70%
- residual activity (PHKG1 (human); compound 10.0 µM): 21%
- residual activity (PIM2 (human); compound 10.0 µM): 40%
- residual activity (PIM3 (human); compound 1.0 µM): 44%
- residual activity (PIM3 (human); compound 10.0 µM): 7%
- residual activity (PRKACA (human); compound 1.0 µM): 79%
- residual activity (PRKACA (human); compound 10.0 µM): 65%
- residual activity (PRKCA (human); compound 1.0 µM): 77%
- residual activity (PRKCA (human); compound 10.0 µM): 31%
- residual activity (RPS6KA3 KD1 KD2 (human); compound 1.0 µM): 80%
- residual activity (RPS6KA3 KD1 KD2 (human); compound 10.0 µM): 53%
- residual activity ([1]; compound 1.0 µM): 55%
- residual activity ([1]; compound 10.0 µM): 13%
- residual activity (SRPK1 (human); compound 1.0 µM): 98%
- residual activity (SRPK1 (human); compound 10.0 µM): 65%
Structure (SMILES): O=C1Nc2nc(-c3c(O)cccc3OCC3CC3)cc(C3CCCNC3)c2CO1 (centres undefined)
- residual activity (MAPK15 (human); compound 1.0 µM): 53%
- residual activity (MAPK15 (human); compound 10.0 µM): 10%
